Patent US20080269213A1, “8-Hydroxyquinoline compounds and methods thereof” (Wyeth, priority 2006, published 2008)
Values joined by “and” are separate entries in the source; they are usually repeats but may differ in a detail not shown here. Equal values may be shown once. Read-outs that look alike come from different tables or passages of the source.

Tests used:
Agg-1 = molecular target: T1, Agg-1 (Homo sapiens, UniProt O75173); assay: Agg-1 FRET assay; assay type: biochemical; settings: for inhibition at 33 µM: @ 33000 nM; for IC50: read-out: Agg1 IC50; for inhibition at 67 µM: @ 67000 nM; for inhibition at 22 µM: @ 22000 nM; for inhibition at 7.4 µM: @ 7400 nM
T1 sequence (O75173 213-837): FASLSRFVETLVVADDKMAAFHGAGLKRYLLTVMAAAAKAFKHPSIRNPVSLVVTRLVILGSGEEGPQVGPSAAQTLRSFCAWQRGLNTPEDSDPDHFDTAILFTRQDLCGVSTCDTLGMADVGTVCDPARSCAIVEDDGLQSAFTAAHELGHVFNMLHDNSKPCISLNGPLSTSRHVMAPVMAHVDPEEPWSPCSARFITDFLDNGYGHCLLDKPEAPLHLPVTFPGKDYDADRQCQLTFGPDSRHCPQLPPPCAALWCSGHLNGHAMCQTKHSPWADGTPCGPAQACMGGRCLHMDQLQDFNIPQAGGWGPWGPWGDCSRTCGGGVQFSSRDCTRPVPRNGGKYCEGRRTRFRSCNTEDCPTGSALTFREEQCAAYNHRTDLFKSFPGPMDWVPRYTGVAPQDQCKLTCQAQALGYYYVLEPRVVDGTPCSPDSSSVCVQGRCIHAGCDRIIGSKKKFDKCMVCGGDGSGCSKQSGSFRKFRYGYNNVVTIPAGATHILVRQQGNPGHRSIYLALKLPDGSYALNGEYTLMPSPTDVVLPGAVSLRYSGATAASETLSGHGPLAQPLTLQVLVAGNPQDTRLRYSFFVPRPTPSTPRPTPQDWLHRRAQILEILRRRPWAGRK
Excerpt: The Agg-1/Agg-2 FRET data for N-[(8-hydroxyquinolin-2-yl)(phenyl)methyl]-2-phenoxyacetamide and 2-{[(phenoxyacetyl)amino](phenyl)methyl}quinolin-8-yl phenoxyacetate is presented in Table 1.

[1] = molecular target: T2, recombinant human Aggrecanase-2 Agg2-Phe628 (Homo sapiens, UniProt Q9UNA0); assay: Aggrecanase 2 in vitro enzyme assay (Agg-2 FRET, quenched fluorescent peptide substrate); assay type: biochemical; set-up: purified recombinant human Aggrecanase-2 Agg2-Phe628 (MW=41,737); This is a truncated form of full-length human aggrecanase-2; made in house; host or cells: CHO cells; settings: for Agg-2 FRET Median PCT INHIB: concentration not given
T2 sequence (Q9UNA0 262-628 limits assumed): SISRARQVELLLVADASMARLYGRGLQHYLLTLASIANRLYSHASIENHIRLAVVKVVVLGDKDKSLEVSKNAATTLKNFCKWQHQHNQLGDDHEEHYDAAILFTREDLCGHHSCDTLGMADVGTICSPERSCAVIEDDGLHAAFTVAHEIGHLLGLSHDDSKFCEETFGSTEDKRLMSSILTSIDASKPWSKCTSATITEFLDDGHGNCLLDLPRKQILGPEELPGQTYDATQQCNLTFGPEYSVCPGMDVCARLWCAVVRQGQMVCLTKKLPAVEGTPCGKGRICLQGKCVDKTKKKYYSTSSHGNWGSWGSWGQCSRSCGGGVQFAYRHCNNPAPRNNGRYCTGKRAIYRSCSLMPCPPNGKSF
Outline: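 Kinetic fluorescence (λex 340, λem 420 nm) monitored over 40 min at 30 °C after adding 25 μM final Abz/Dnp brevican-based quenched peptide. Enzyme: recombinant truncated human Agg2-Phe628 from CHO, 0.5 μg/ml final, mixed with inhibitor first; buffer HEPES pH 7.5 with NaCl, CaCl2, CHAPS, glycerol; compounds in duplicate.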

[2] = read-out: Agg-2 FRET Median IC50

Structure (SMILES) | IC50 (Agg-1) [nM] | IC50 ([1]; read-out: Agg2 IC50) [nM] | IC50 [1, 2] | other results
CCCCCc1ccc(OCC(=O)NC(c2ccccc2Cl)c2cc(Cl)c3cccnc3c2O)cc1 (stereo not drawn) [N-[(5-chloro-8-hydroxyquinolin-7-yl)(2-chlorophenyl)methyl]-2-(4-pentylphenoxy)acetamide] | – | – | – | inhibition at 33 µM (Agg-1; read-out: Agg1 %): 44%; inhibition at 22 µM ([1]; @ 22000 nM, read-out: Agg2 %): 50%
CCCc1ccc(OCC(=O)NC(c2ccccc2Cl)c2cc(Cl)c3cccnc3c2O)cc1 (stereo not drawn) [N-[(5-chloro-8-hydroxyquinolin-7-yl)(2-chlorophenyl)methyl]-2-(4-propylphenoxy)acetamide] | – | – | – | inhibition at […] (Agg-1; @ 1100 nM, read-out: Agg1 %): 44%; inhibition at […] ([1]; @ 2500 nM): 47%
O=C(Cc1ccccc1)NC(c1ccccc1Cl)c1cc(Cl)c2cccnc2c1O (stereo not drawn) [N-[(5-chloro-8-hydroxyquinolin-7-yl)(2-chlorophenyl)methyl]-2-phenylacetamide] | – | 1540 | 1540 nM | inhibition at […] (Agg-1; @ 1200 nM, read-out: Agg1 %): 29%
O=C(COc1ccccc1)NC(c1ccccc1N1CCOCC1)c1cc(Cl)c2cccnc2c1O (stereo not drawn) [N-[(5-chloro-8-hydroxyquinolin-7-yl)(2-morpholin-4-ylphenyl)methyl]-2-phenoxyacetamide] | – | – | – | inhibition at 22 µM (Agg-1; read-out: Agg1 %): 59%; inhibition at […] ([1]; @ 1200 nM): 43%
Cc1ccsc1C(NC(=O)Cc1ccccc1)c1cc(Cl)c2cccnc2c1O (stereo not drawn) [N-[(5-chloro-8-hydroxyquinolin-7-yl)(3-methyl-2-thienyl)methyl]-2-phenylacetamide] | – | 2540 | 2540 nM | inhibition at 20 µM (Agg-1; @ 20000 nM, read-out: Agg1 %): 52%
O=C(Cc1ccccc1)NC(c1ccc(F)cc1)c1cc(Cl)c2cccnc2c1O (stereo not drawn) [N-[(5-chloro-8-hydroxyquinolin-7-yl)(4-fluorophenyl)methyl]-2-phenylacetamide] | – | 2140 | 2140 nM | inhibition at 3.7 µM (Agg-1; @ 3700 nM, read-out: Agg1 %): 33%
CCCCC#Cc1ccc(C(NC(=O)COc2ccccc2)c2cc(Cl)c3cccnc3c2O)cc1 (stereo not drawn) [N-[(5-chloro-8-hydroxyquinolin-7-yl)(4-hex-1-yn-1-ylphenyl)methyl]-2-phenoxyacetamide] | – | – | – | inhibition at 50 µM (Agg-1; @ 50000 nM, read-out: Agg1 %): 47%; inhibition at 33.3 µM ([1]; @ 33300 nM): 48%
CC(C)c1ccc(C(NC(=O)COc2ccccc2)c2cc(Cl)c3cccnc3c2O)cc1 (stereo not drawn) [N-[(5-chloro-8-hydroxyquinolin-7-yl)(4-isopropylphenyl)methyl]-2-phenoxyacetamide] | – | – | – | inhibition at 33 µM (Agg-1; read-out: Agg1 %): 47%; inhibition at […] ([1]; @ 2500 nM): 45%
COc1ccc(C(NC(=O)COc2ccccc2)c2cc(Cl)c3cccnc3c2O)c2ccccc12 (stereo not drawn) [N-[(5-chloro-8-hydroxyquinolin-7-yl)(4-methoxy-1-naphthyl)methyl]-2-phenoxyacetamide] | – | 800 | – | inhibition at 22 µM (Agg-1; read-out: Agg1 %): 62%
O=C(COc1ccccc1)NC(c1ccc(-c2ccncc2)cc1)c1cc(Cl)c2cccnc2c1O (stereo not drawn) [N-[(5-chloro-8-hydroxyquinolin-7-yl)(4-pyridin-4-ylphenyl)methyl]-2-phenoxyacetamide] | 4700 | – | – | inhibition at 0.8 µM ([1]; @ 800 nM): 48%
O=C(COc1ccccc1)NC(c1cc(Cl)c2cccnc2c1O)c1cc2ccccc2c2ccccc12 (stereo not drawn) [N-[(5-chloro-8-hydroxyquinolin-7-yl)(9-phenanthryl)methyl]-2-phenoxyacetamide] | – | – | – | inhibition at 33 µM (Agg-1; read-out: Agg1 %): 54%; inhibition at 11 µM ([1]; @ 11000 nM): 51%
COc1cc(OCC(=O)NC(c2ccccc2)c2cc(Cl)c3cccnc3c2O)cc(OC)c1OC (stereo not drawn) [N-[(5-chloro-8-hydroxyquinolin-7-yl)(phenyl)methyl]-2-(3,4,5-trimethoxyphenoxy)acetamide] | – | 1800 | – | inhibition at 7.5 µM (Agg-1; @ 7500 nM, read-out: Agg1 %): 54%
O=C(CN1CCC(c2ccccc2)CC1)NC(c1ccccc1)c1cc(Cl)c2cccnc2c1O (stereo not drawn) [N-[(5-chloro-8-hydroxyquinolin-7-yl)(phenyl)methyl]-2-(4-phenylpiperidin-1-yl)acetamide] | ~11000 | ~3700 | – | Agg-2 FRET Median PCT INHIB [1]: 57%

Further lines, with some results ahead:

IC50 (Agg-1) [nM] | IC50 ([1]; read-out: Agg2 IC50) [nM] | IC50 [1, 2] | Structure (SMILES) | other results
> 22000 | 1550 | 1550 nM and 350 nM | O=C(COc1ccccc1)NC(c1ccccc1Cl)c1cc(Cl)c2cccnc2c1O (stereo not drawn) [N-[(5-chloro-8-hydroxyquinolin-7-yl)(2-chlorophenyl)methyl]-2-phenoxyacetamide] | –
– | 2430 | 3900 nM and 2430 nM | O=C(COc1ccccc1)NC(c1ccco1)c1cc(Cl)c2cccnc2c1O (stereo not drawn) [N-[(5-chloro-8-hydroxyquinolin-7-yl)(2-furyl)methyl]-2-phenoxyacetamide] | inhibition at 67 µM (Agg-1; read-out: Agg1 %): 51%
– | – | 1210 nM | O=C(COc1ccccc1)NC(c1ccccc1[N+](=O)[O-])c1cc(Cl)c2cccnc2c1O (stereo not drawn) [N-[(5-chloro-8-hydroxyquinolin-7-yl)(2-nitrophenyl)methyl]-2-phenoxyacetamide] | inhibition at 7.4 µM (Agg-1; read-out: Agg1 %): 48%; inhibition at […] ([1]; @ 1200 nM): 58%
> 1500 | – | 1060 nM and 5190 nM | COc1ccc(C(NC(=O)COc2ccccc2)c2cc(Cl)c3cccnc3c2O)cc1OC (stereo not drawn) [N-[(5-chloro-8-hydroxyquinolin-7-yl)(3,4-dimethoxyphenyl)methyl]-2-phenoxyacetamide] | –
66000 to 200000 | 1500 | – | Cc1ccc(C(NC(=O)COc2ccccc2)c2cc(Cl)c3cccnc3c2O)cc1C (stereo not drawn) [N-[(5-chloro-8-hydroxyquinolin-7-yl)(3,4-dimethylphenyl)methyl]-2-phenoxyacetamide] | –
> 22000 | 3460 | 3460 nM | O=C(COc1ccccc1)NC(c1ccoc1)c1cc(Cl)c2cccnc2c1O (stereo not drawn) [N-[(5-chloro-8-hydroxyquinolin-7-yl)(3-furyl)methyl]-2-phenoxyacetamide] | –
– | 1370 | 1370 nM | Cc1ccsc1C(NC(=O)COc1ccccc1)c1cc(Cl)c2cccnc2c1O (stereo not drawn) [N-[(5-chloro-8-hydroxyquinolin-7-yl)(3-methyl-2-thienyl)methyl]-2-phenoxyacetamide] | inhibition at 33 µM (Agg-1; read-out: Agg1 %): 33%
– | 1230 | 1230 nM and 488 nM | O=C(COc1ccccc1)NC(c1cccc([N+](=O)[O-])c1)c1cc(Cl)c2cccnc2c1O (stereo not drawn) [N-[(5-chloro-8-hydroxyquinolin-7-yl)(3-nitrophenyl)methyl]-2-phenoxyacetamide] | inhibition at 22 µM (Agg-1; read-out: Agg1 %): 53%
– | 1200 | – | O=C(COc1ccccc1)NC(c1ccc(F)cc1)c1cc(Cl)c2cccnc2c1O (stereo not drawn) [N-[(5-chloro-8-hydroxyquinolin-7-yl)(4-fluorophenyl)methyl]-2-phenoxyacetamide] | inhibition at 67 µM (Agg-1; read-out: Agg1 %): 48%
~11000 | – | – | O=C(COc1ccccc1)NC(c1cc(Cl)c2cccnc2c1O)c1coc2ccccc2c1=O (stereo not drawn) [N-[(5-chloro-8-hydroxyquinolin-7-yl)(4-oxo-4H-chromen-3-yl)methyl]-2-phenoxyacetamide] | inhibition at […] ([1]; @ 2500 nM): 72%
> 22000 | 2320 | 2320 nM | Cc1ccc(C(NC(=O)COc2ccccc2)c2cc(Cl)c3cccnc3c2O)o1 (stereo not drawn) [N-[(5-chloro-8-hydroxyquinolin-7-yl)(5-methyl-2-furyl)methyl]-2-phenoxyacetamide] | –
> 22000 | > 5000 | – | O=C(COc1ccccc1)NC(c1ccc(-c2ccccc2)o1)c1cc(Cl)c2cccnc2c1O (stereo not drawn) [N-[(5-chloro-8-hydroxyquinolin-7-yl)(5-phenyl-2-furyl)methyl]-2-phenoxyacetamide] | Agg-2 FRET Median PCT INHIB [1]: 54%
– | 1200 | – | Cc1ccc2occ(C(NC(=O)COc3ccccc3)c3cc(Cl)c4cccnc4c3O)c(=O)c2c1 (stereo not drawn) [N-[(5-chloro-8-hydroxyquinolin-7-yl)(6-methyl-4-oxo-4H-chromen-3-yl)methyl]-2-phenoxyacetamide] | inhibition at 7.4 µM (Agg-1; read-out: Agg1 %): 43%
1000 to 8000 | – | – | O=C(COc1ccccc1)NC(C1=CCCCC1)c1cc(Cl)c2cccnc2c1O (stereo not drawn) [N-[(5-chloro-8-hydroxyquinolin-7-yl)(cyclohex-1-en-1-yl)methyl]-2-phenoxyacetamide] | inhibition at […] ([1]; @ 1900 nM): 42%
